The values below come from PubChem BioAssay (NCI).

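A five-concentration, 48-hour dose response in 96-well plates underlies each endpoint, interpolated linearly between surrounding concentrations. Definition used: TGI = concentration required for complete inhibition of growth.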

Some test systems named below: A549 NSCLC; EKVX NSCLC; HS 578T breast; RPMI-8226 leukemia; MOLT-4 leukemia; SNB-75 CNS; BT-549 breast; SN12C renal; HCT-15 colon.
Assay in all cases: NCI tumour cell line growth inhibition, 48 h

On to `Cc1cc(=O)oc2c(CN(CCCl)CCCl)c(O)ccc12`, for which the TGI in the assay with A549 NSCLC is more than 100 µM; in the assay on EKVX NSCLC, more than 100 µM; in the assay with HS 578T breast, more than 100 µM; in the assay with RPMI-8226 leukemia, 63.6 µM; in the assay on MOLT-4 leukemia it was 98.8 µM; with SNB-75 CNS, more than 100 µM. Also, the TGI in the assay on BT-549 breast was 78.5 µM; in the assay with SN12C renal, more than 100 µM; with HCT-15 colon, more than 100 µM.
For the molecule `O=C(OCC(OC(=O)c1ccccc1)C1CC(C(O)C2CCCCC2)C(=O)O1)c1ccccc1` (stereo not drawn), the TGI in the assay with EKVX NSCLC was more than 100 µM; in the assay with HS 578T breast, more than 100 µM; in the assay on RPMI-8226 leukemia it was 78.9 µM; in the assay with MOLT-4 leukemia it was 47.9 µM; in the assay on SNB-75 CNS, more than 100 µM; with BT-549 breast it was more than 100 µM. Further, the TGI in the assay with SN12C renal and in the assay with HCT-15 colon was more than 100 µM in each case.
Consider `[O-][n+]1cc(SCc2ccccc2)ncc1SCc1ccccc1`, for which the TGI in the assay on A549 NSCLC, with EKVX NSCLC, in the assay with HS 578T breast, with RPMI-8226 leukemia, in the assay on MOLT-4 leukemia and in the assay with SNB-75 CNS was more than 10 µM each time. For the same molecule, the TGI in the assay on BT-549 breast, with SN12C renal and in the assay on HCT-15 colon was more than 10 µM each time.
For the molecule `O=C1CSC2=NC3=C(COC/C3=C\c3ccc(F)cc3)C(c3ccc(F)cc3)N12` (stereo not drawn), the TGI in the assay on EKVX NSCLC, in the assay on HS 578T breast, in the assay on RPMI-8226 leukemia, with MOLT-4 leukemia, with SNB-75 CNS and with BT-549 breast was more than 100 µM each time. Besides, the TGI in the assay with SN12C renal and in the assay with HCT-15 colon was more than 100 µM in each case.
Take `COc1ccc(C2CCc3c(cnc4nc(N)nc(N)c34)C2)cc1` (stereo not drawn): the TGI in the assay on A549 NSCLC is more than 100 µM; with EKVX NSCLC, more than 100 µM; in the assay on HS 578T breast it was more than 100 µM; with RPMI-8226 leukemia it was more than 100 µM; in the assay with MOLT-4 leukemia, more than 100 µM; with SNB-75 CNS, 26.7 µM. Further, the TGI in the assay with BT-549 breast, with SN12C renal and in the assay on HCT-15 colon was more than 100 µM each time.
As for `C=C1CC2C[C@H](OS(=O)(=O)c3ccc(C)cc3)C(C1)N2C` (stereo partly drawn), the TGI with A549 NSCLC, in the assay with EKVX NSCLC, in the assay with HS 578T breast, in the assay on RPMI-8226 leukemia, in the assay with MOLT-4 leukemia and in the assay with SNB-75 CNS was more than 100 µM in each case. Also, the TGI in the assay with BT-549 breast, in the assay with SN12C renal and in the assay with HCT-15 colon was more than 100 µM throughout.
In the case of `COc1ccc2c(-c3csc(-c4c[nH]c5ccccc45)n3)c[nH]c2c1`, the TGI in the assay with A549 NSCLC is 53.7 µM; in the assay on EKVX NSCLC it was 13.3 µM; with HS 578T breast, more than 78.7 µM; in the assay with RPMI-8226 leukemia, more than 24.5 µM; in the assay with MOLT-4 leukemia, 19.8 µM; in the assay on SNB-75 CNS it was 91.7 µM. Further, the TGI in the assay with BT-549 breast is more than 100 µM; in the assay on SN12C renal, 35.9 µM; in the assay on HCT-15 colon, more than 100 µM.
Turning to `O=c1[nH]c(=O)c2c([nH]1)[nH]c1ccccc12`, the TGI with A549 NSCLC, with EKVX NSCLC, with HS 578T breast, with RPMI-8226 leukemia, with MOLT-4 leukemia and with SNB-75 CNS was more than 100 µM in each case. Also, the TGI in the assay with BT-549 breast, in the assay on SN12C renal and in the assay on HCT-15 colon was more than 100 µM throughout.
For `CC(=O)N1C(=O)/C(=C\C(=O)c2ccc(Cl)cc2)c2ccccc21`, the TGI in the assay with A549 NSCLC is 22.9 µM; in the assay with EKVX NSCLC, 36.2 µM; with HS 578T breast, more than 57.3 µM; in the assay on RPMI-8226 leukemia, 97.1 µM; in the assay with MOLT-4 leukemia, 9.09 µM; in the assay on SNB-75 CNS, 35 µM. The TGI in the assay with BT-549 breast amounted to 18.4 µM; in the assay on SN12C renal it was 32.1 µM; in the assay with HCT-15 colon, 23.4 µM.
As to `O=C(c1cccs1)N(C(=O)N1CCCCC1)c1ccccc1`, the TGI in the assay with EKVX NSCLC was more than 100 µM; in the assay on HS 578T breast, more than 100 µM; with RPMI-8226 leukemia it was more than 100 µM; in the assay on MOLT-4 leukemia, more than 100 µM; in the assay on SNB-75 CNS, 88.7 µM; in the assay on BT-549 breast it was more than 100 µM. Further, the TGI with SN12C renal and in the assay with HCT-15 colon was more than 100 µM throughout.
Take `C[C@@H]1CC(=O)[C@@]2(C)[C@](O)(CCC3O[C@]32C)[C@@]12CC(c1ccoc1)OC2=O` (stereo partly drawn): the TGI in the assay on A549 NSCLC was more than 100 µM; in the assay with EKVX NSCLC, more than 100 µM; in the assay on HS 578T breast it was more than 100 µM; in the assay on RPMI-8226 leukemia it was more than 100 µM; with MOLT-4 leukemia it was 58.5 µM; in the assay on SNB-75 CNS it was more than 100 µM. In addition, the TGI in the assay with BT-549 breast and in the assay on HCT-15 colon was more than 100 µM each time.
Take `N#Cc1c(NC(=S)Nc2ccccc2)sc2c1CCCC2`: the TGI in the assay on EKVX NSCLC, with HS 578T breast, in the assay on RPMI-8226 leukemia, in the assay with MOLT-4 leukemia, with SNB-75 CNS and in the assay with BT-549 breast was more than 100 µM in each case. In addition, the TGI in the assay with SN12C renal and in the assay with HCT-15 colon was more than 100 µM throughout.
